Data on 2 molecules can be found in patent US8188268B2, “Porous crystalline saccharide, its preparation and uses” (Kabushiki Kaisha Hayashibara Seibutsu Kagaku Kenkyujo, priority 2005, dated 2012).

Data set [1] in a line: Specific surface area by nitrogen adsorption isotherms (BET). Format: physicochemical. As for the experimental part: Specific surface area of the porous anhydrous crystalline trehalose was measured by the nitrogen adsorption isotherms using “MODEL ASAP-2400”, a specific surface area/pore size distribution analyzer commercialized by Micromeritics, Georgia, USA. […] The result was analyzed by the BET (Brunnauer, Emmet, and Teller) method. The commercial anhydrous crystalline trehalose, a reagent grade, commercialized by Hayashibara Biochemical Laboratories Inc., Okayama, Japan, was used as a control. […] Further, those pore size distribution charts are in FIG. 19. […] The results of the analysis on the specific surface area and the pore size distribution are summarized in Table 7, and the pore size distribution chart was in FIG. 24. As a control, “MALTOSE OM”, a hydrous crystalline maltose product with maltose purity of 98% or higher, produced by Hayashibara Co., Ltd., Okayama, Japan, was used.

A short description of data set [2]: Pore size distribution by the mercury filling method. The class given is physicochemical.
A short description of data set [3]: Crystal moisture content (Karl Fischer) on moisture absorption and drying. Format: physicochemical. The procedure:
Hydrous crystalline saccharides were prepared from the respective porous anhydrous crystalline saccharide using the porous anhydrous crystalline trehalose, obtained by treating at 70° C. for 60 min in Example 1, and the porous anhydrous crystalline maltose, obtained by treating at 70° C. for 480 min in Example 3, as materials. About 50 g of the porous anhydrous crystalline saccharide and about 150 ml of deionized water were placed in respective container. Then, the both open containers were placed in the same closed vessel and leaved to stand at 27° C. for two days. By the treatment, the anhydrous crystalline saccharide was allowed to absorb moisture and converted into hydrous crystal. The resulting hydrous crystal was dried in a drying machine at 50° C. for one hour to remove excess moisture. The moisture contents of the porous anhydrous crystalline trehalose and the porous anhydrous crystalline maltose before and after the treatment to absorb moisture and after drying are in Table 6. The moisture content of crystals was measured by the conventional Karl Fischer's method.

Data set [4] can be described thus: Dissolution test against cold water at 10° C. Format: physicochemical. As for the experimental part: A dissolution test against cold water at 10° C. was carried out using the porous anhydrous crystalline trehalose prepared by treating at 70° C. for 60 min in Example 1, the porous anhydrous crystalline maltose prepared by the method in Example 3, and the porous hydrous crystalline maltose prepared by the method in Example 5, as samples. The results were compared with those of the controls, anhydrous crystalline trehalose, hydrous crystalline trehalose, and hydrous crystalline maltose.
Twenty milliliters of 10° C.-cold water was placed in a test tube with an internal diameter of 18 mm, and then stirred using a stirring bar. A crystalline saccharide sample was put into the test tube, and the time required for the complete dissolution (for the disappearance of precipitate particles) was measured. The amount of samples was set to be 0.5 g in the case of trehalose and to be 0.2 g in the case of maltose, and the stirring rate was set to be about 300 rpm in any case. The measurement of time for dissolution under the above conditions was carried out 5-times at each sample.

Data set [5] is described as follows: Oil-keeping ability with salad oil. The class given is physicochemical. Details: key to Oil-keeping ability: (5 g salad oil / g saccharide added at endpoint) x 100. The following applies: for Oil-keeping ability: (5 g salad oil / amount of added saccharide) x 100. The procedure:
The oil-keeping ability of each crystalline saccharide was measured using the porous anhydrous crystalline trehalose prepared by treating at 70° C. for 60 min in Example 1, the control hydrous crystalline trehalose, and the control anhydrous crystalline trehalose as crystalline trehalose samples; and the porous anhydrous crystalline maltose prepared by the method in Example 3, the control hydrous crystalline β-maltose, and the control anhydrous crystalline α-maltose, and the control anhydrous crystalline β-maltose as crystalline maltose samples, and the results were compared.
The measurement of the oil-keeping ability of the crystalline saccharide was carried out according to the method disclosed in Japanese Patent Kokai No. 31,650/84. Five grams of “NISSHIN SALAD OIL”, a salad oil commercialized by Nisshin OiliO Group, Ltd., Tokyo, Japan, was placed in a 50-ml plastic container, and then gradually admixed with each powdery crystalline saccharide with stirring. […] When the amount of the mixed saccharide is further increased, the agglomerate increase in solidity and then loosen. The point that the agglomerate is loosened is estimated to be the endpoint and the oil-keeping ability was calculated using the following formula. Oil-Keeping Ability =(The amount of salad oil(5 g)/the amount of added PCS*)×100 *: Powdery crystalline saccharide tm Formula 1

The nature of data set [6]: Flax seed oil powder: keeping of powdery form. Format: physicochemical. The note with it: 1 part flax seed oil + 10 parts saccharide as base. The procedure:
One part by weight of flax seed oil was admixed with 10 parts by weight of the porous anhydrous crystalline trehalose, prepared by treating at 70° C. for 60 min in Example 1, and then the mixture was kneaded to make into a powdery product. In the same manner, powdery products were prepared by using “TREHA®”, hydrous crystalline trehalose commercialized by Hayashibara Shoji Inc., Okayama, Japan, and anhydrous crystalline trehalose, prepared from hydrous crystalline trehalose by drying in vacuo at a high temperature according to the conventional method, as controls. […] The flaxseed oil powder can be preferably used as a supplement.

Data set [7] is described as follows: Preservation test of flax seed oil powder, volatile aldehydes by GC. Format: physicochemical. The note with it: flax seed oil powder with this base. The procedure:
As disclosed in Japanese Patent Kokai No. 123,195/2001 applied for by the same applicant of the present invention, it has been known that trehalose inhibits the decomposition of fatty acids and the formation of volatile aldehydes. Therefore, a preservation test of the flax seed oil powders were carried out according to the following method by using the flax seed oil powders prepared in Example 9 by using the porous anhydrous crystalline trehalose of the present invention or the control anhydrous crystalline trehalose as powderizing bases, and the amounts of the formed volatile aldehydes were compared.
One gram each of the flax seed oil powder was put into two 20 ml-vial, sealed with Butyl-rubber stopper, and then preserved in an incubator at 40° C. for three weeks. The vial was collected at the point of before the preservation or after preserving for 21 days and heated at 80° C. for 5 min. Then, 2 ml of vapor phase gas in the vial was directly subjected to gas chromatography (GC) analysis to determine the amount of volatile aldehydes. GC analysis was carried out according to the following conditions.
• Gas chromatograph: GC-17B, produced by Shimadzu Corporation, Kyoto, Japan; • Column: TC-FFAP capillary column (ID 0.52 mm×30 m), produced by GL Sciences Inc., Tokyo, Japan; • Column temperature: 40° C. to 100° C.

The conditions of data set [8]: background art; cited from earlier work.
Setting [9] is: 20 ml water 10° C., about 300 rpm, 0.5 g trehalose or 0.2 g maltose, listed as Porous anhydrous crystalline trehalose (Present invention).
The mark [10] stands for this setting: 21 days after preservation at 40° C., listed as Porous anhydrous crystalline trehalose (Present invention).
The mark [11] stands for this setting: before preservation, listed as Porous anhydrous crystalline trehalose (Present invention).

The structures appear in SMILES notation. “And” between values parts separate entries of the source, which are not always exact repeats. Equal entries are not always repeated. Where two headings read alike, the source gives them in different places.

With `OC[C@H]1O[C@H](O[C@H]2O[C@H](CO)[C@@H](O)[C@H](O)[C@H]2O)[C@H](O)[C@@H](O)[C@@H]1O` [Porous anhydrous crystalline trehalose (treated at 70° C. fo] [α-D-glucosyl α-D-glucoside], in data set [1] (compared with control(s)), the “Specific surface area relative to control crystalline saccharide” value is given as at least 5 folds. Further, the Specific surface area in data set [1] (nitrogen adsorption isotherms, BET) is 2.513 m^2/g. In data set [2], the Intrusion volume was found to be 0.28 mL/g, the Mode pore diameter was found to be 0.20 μm, the “Pore diameter of clear peak in pore size distribution chart” value is recorded as “less than 5 μm” and the “Remarks (pores)” value is on record as “Having clear pores”. In data set [2] (control maltose values are from space between particles, not pores), this molecule returned a Median pore diameter of 0.29 μm. Further, the Intrusion volume in data set [2] (listed as porous anhydrous crystalline trehalose) is 0.22 mL/g and 0.28 mL/g. For the same molecule, the “Crystal moisture content, after drying” value in data set [3] (after moisture absorption and drying at 50° C. for one hour) is reported as 9.66 %, w/w. In addition, in data set [3] (before moisture absorption), the “Crystal moisture content, before treatment” value is listed as 0.24 %, w/w. Besides, the “Crystal moisture content, after treatment” value in data set [3] (closed vessel with water, 27° C., two days) was 10.32 %, w/w. In addition, in data set [4] (setting [9]), the “Time required for dissolution, No. 1” value stood at 29 s; the “Time required for dissolution, No. 2” value was found to be 34 s; the “Time required for dissolution, No. 3” value amounted to 40 s; the “Time required for dissolution, No. 4” value was 29 s. Besides, the “Time required for dissolution, No. 5” value in data set [4] (setting [9]) was 31 s. Besides, the “Time required for dissolution, Average” value in data set [4] (average of 5, 20 ml water 10° C., about 300 rpm, 0.5 g trehalose or 0.2 g maltose, listed as Porous anhydrous crystalline trehalose (Present invention)) came to 33 s. For the same molecule, the “Dissolution in cold water in comparison with controls” value in data set [4] (cold water 10° C.) is on record as “rapidly dissolved in cold water”. In data set [5], the Oil-keeping ability is recorded as 62.5. The Oil-keeping ability in data set [5] (listed as Porous anhydrous crystalline trehalose (Present invention)) was 62.5. Further, in data set [5] (compared with control crystalline saccharide), the “Oil-keeping ability relative to control” value is recorded as “about 1.6 folds”. Moreover, the “Powdery form of flax seed oil powder” value in data set [6] is on record as “kept good powdery form”. In data set [7] (21 days after preservation at 40° C.), this molecule came in with a 2-Heptenal of 0.01 μg/ml-vapor phase gas. Moreover, in data set [7] (setting [10]), the “2,4-Decadienal” value was found to be 4.01 μg/ml-vapor phase gas, the 2-Hexenal was 0.01 μg/ml-vapor phase gas, the 2-Nonenal is given as 0.19 μg/ml-vapor phase gas and the 2-Octenal is on record as 0.43 μg/ml-vapor phase gas. In data set [7] (setting [10]), this molecule gave an Acetoaldehyde of 3.77 μg/ml-vapor phase gas, a Butanal of 0.63 μg/ml-vapor phase gas, a Hexanal of 0.11 μg/ml-vapor phase gas and a Pentanal of 0.33 μg/ml-vapor phase gas. For the same molecule, in data set [7] (setting [10]), the Propanal amounted to 8.66 μg/ml-vapor phase gas and the Total aldehydes was 18.15 μg/ml-vapor phase gas. Besides, in data set [7] (before preservation), the 2-Heptenal is 0.00 μg/ml-vapor phase gas and the 2-Hexenal was 0.00 μg/ml-vapor phase gas. Moreover, in data set [7] (setting [11]), the “2,4-Decadienal” value is on record as 3.66 μg/ml-vapor phase gas, the 2-Nonenal is recorded as 0.00 μg/ml-vapor phase gas, the 2-Octenal is 0.11 μg/ml-vapor phase gas and the Acetoaldehyde was found to be 4.13 μg/ml-vapor phase gas. Further, in data set [7] (setting [11]), the Butanal worked out at 0.43 μg/ml-vapor phase gas, the Hexanal is 0.00 μg/ml-vapor phase gas, the Pentanal stood at 0.09 μg/ml-vapor phase gas and the Propanal is listed as 5.77 μg/ml-vapor phase gas. The molecule further yielded a Total aldehydes in data set [7] (setting [11]) of 14.19 μg/ml-vapor phase gas.
On to `OC[C@H]1O[C@@](CO)(O[C@H]2O[C@H](CO)[C@@H](O)[C@H](O)[C@H]2O)[C@@H](O)[C@@H]1O` [granulated sugar, sucrose], for which the Specific surface area entry in data set [8] is recorded as “about 0.1 m^2/g”.
